Laboratory results published in ChEMBL document CHEMBL4422625, “Structure Elucidation, Conformation, and Configuration of Cytotoxic 6-Heptyl-5,6-dihydro-2 H-pyran-2-ones from Hyptis Species and Their Molecular Docking to α-Tubulin” (J Nat Prod, 2019).

How the values were obtained:
Assay type in all cases: functional, cell-based
MCF7 = assay: Cytotoxicity against human MCF7 cells after 48 hrs by sulforhodamine B assay; details: MCF7, 48 h
HeLa = assay: Cytotoxicity against human HeLa cells after 48 hrs by sulforhodamine B assay
HCT-15 = assay: Cytotoxicity against human HCT15 cells after 48 hrs by sulforhodamine B assay; details: HCT-15, 48 h

Row | SMILES | IC50 (MCF7) [µM] | IC50 (HeLa) [µM] | IC50 (HCT-15) [µM]
1 | CCCC[C@@H](/C=C\[C@@H]1OC(=O)C[C@@H](OC)[C@@H]1OC(C)=O)OC(C)=O | > 10 | > 10 | > 10
2 | CCCC[C@H](/C=C\[C@@H]1OC(=O)C=C[C@@H]1O)OC(C)=O | 1.3 | 1.4 | 9.5
3 | CCCC[C@H](O)/C=C\[C@@H]1OC(=O)C=C[C@@H]1O | 5.9 | 6.2 | 7.4
4 | CCCC[C@H](O)/C=C\[C@@H]1OC(=O)C[C@@H](OC)[C@@H]1O | > 10 | > 10 | > 10
5 | CCCC[C@H](/C=C\[C@@H]1OC(=O)C=C[C@@H]1OC(C)=O)OC(C)=O | 0.5 | 0.7 | 0.8
6 | CCCC[C@H](OC(C)=O)[C@@H](O)[C@H](O)[C@@H]1OC(=O)C=C[C@@H]1OC(C)=O | 9.8 | 6.9 | 9.9
7 | CCCC[C@H](OC(C)=O)[C@@H](OC(C)=O)[C@H](OC(C)=O)[C@@H]1OC(=O)C=C[C@@H]1OC(C)=O | 7.7 | 2.7 | > 10
8 | CCCC[C@@H](/C=C\[C@@H]1OC(=O)C=C[C@@H]1OC(C)=O)OC(C)=O [PECTINOLIDE A] | 3.2 | 3.2 | 5.7
9 | CCCC[C@H](O)/C=C\[C@@H]1OC(=O)C=C[C@@H]1OC(C)=O [PECTINOLIDE B] | 9.3 | 4.1 | 5.2
10 | CCCC[C@@H](/C=C\[C@@H]1OC(=O)C=C[C@@H]1O)OC(C)=O [PECTINOLIDE C] | 1 | 0.3 | 2.3
11 | C/C=C/C[C@H](C)[C@@H](OC)[C@@H](C)[C@H](O)C[C@H]1OC(=O)C=C[C@H]1CC [PIRONETIN] | 0.015 | 0.092 | < 0.015
12 | CC[C@]1(O)C[C@@H]2CN(CCc3c([nH]c4ccccc34)[C@@](C(=O)OC)(c3cc4c(cc3OC)N(C)[C@H]3[C@@](O)(C(=O)OC)[C@H](OC(C)=O)[C@]5(CC)C=CCN6CC[C@]43[C@@H]65)C2)C1 [VINBLASTINE] | 0.012 | 0.011 | 0.011
